Laboratory results from US10173968B2, “Bishydrazone-based antifungal agents” (University of Kentucky Research Foundation, priority 2016, dated 2019).
Read-outs that look alike come from different tables or passages of the source.

Assays:
[1] = Mammalian cell cytotoxicity, resazurin; format: cell-based; conditions: human
Experimental: Another important aspect to consider during the development of antimicrobial agents is their potential toxicity towards mammalian cells. Having established the potent antimicrobial activities of the bis(N-amidino)hydrazones and N-amidino-N′-aryl-bishydrazones against bacteria and fungi, the toxicity profile of these compounds was determined against two mammalian cell lines (A549 and BEAS-2B; FIGS. 4A-B). […]. Cytotoxicity assays were performed as previously described. The human lung carcinoma epithelial cells A549 and the normal human bronchial epithelial cells BEAS-2B were grown in F12-K and DMEM medium containing 10% fetal bovine serum (FBS) and 1% antibiotics, respectively. The confluent cells were trypsinized with 0.05%-trypsin-0.53 mM EDTA, centrifuged (1,200 rpm) and resuspended in fresh medium (F12-K or DMEM). The cells were seeded into 96-well microtiter plates at a density of 3,000 cells/well and were grown overnight. […] Triton X-100® (0.5%, v/v) gave complete loss of cell viability and was used as the positive control. The percent cell survival was calculated as: (test value/control value)×100, where control value represents cells+resazurin−drug, and test value represents cells+resazurin+drug.

K. pneumoniae ATCC 27736 = experiment: Antibacterial MIC, double-dilution method; format: cell-based; conditions: Klebsiella pneumoniae, ATCC27736, strain H, Gram-negative, read-out: MIC
Method in brief: (§1)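 The lowest inhibitory concentration is reported from a twofold dilution series, after an initial single-concentration screen with every compound at 500 μM.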

E. cloacae ATCC 13047 = experiment: Antibacterial MIC, double-dilution method; format: cell-based; conditions: Enterobacter cloacae, ATCC13047, strain F, Gram-negative, read-out: MIC
Method in brief: as §1

M. smegmatis MC2-155 = experiment: Antibacterial MIC, double-dilution method; format: cell-based; conditions: Mycolicibacterium smegmatis, MC2155, strain K, mycobacterial, read-out: MIC
Method in brief: as §1

A. baumannii ATCC 19606 = experiment: Antibacterial MIC, double-dilution method; format: cell-based; conditions: Acinetobacter baumannii, ATCC19606, strain E, Gram-negative, read-out: MIC
Method in brief: as §1

MRSA = experiment: Antibacterial MIC, double-dilution method; format: cell-based; conditions: Staphylococcus aureus, strain C, Gram-positive, read-out: MIC
Method in brief: as §1

S. enterica ATCC 14028 = experiment: Antibacterial MIC, double-dilution method; format: cell-based; conditions: Salmonella enterica, ATCC14028, strain J, Gram-negative, read-out: MIC
Method in brief: as §1

P. aeruginosa ATCC 27853 = experiment: Antibacterial MIC, double-dilution method; format: cell-based; conditions: Pseudomonas aeruginosa, ATCC27853, strain I, Gram-negative, read-out: MIC
Method in brief: as §1

VRE = experiment: Antibacterial MIC, double-dilution method; format: cell-based; conditions: Enterococcus, strain D, Gram-positive, read-out: MIC
Method in brief: as §1

E. coli MC1061 = experiment: Antibacterial MIC, double-dilution method; format: cell-based; conditions: Escherichia coli, strain G, Gram-negative, read-out: MIC
Method in brief: as §1

[2] = tested on: L. monocytogenes ATCC 19115; experiment: Antibacterial MIC, double-dilution method; format: cell-based; conditions: Listeria monocytogenes, ATCC19115, strain B, Gram-positive, read-out: MIC
Method in brief: as §1

B. subtilis 168 = experiment: Antibacterial MIC, double-dilution method; format: cell-based; conditions: Bacillus subtilis, strain A, Gram-positive
Method in brief: as §1

C. albicans ATCC 10231 = experiment: Antifungal MIC, CLSI M27-A3 microbroth dilution; format: cell-based, Candida albicans; conditions: Candida albicans, ATCC10231, C. albicans ATCC 10231, resistant to FLC, ITC, and VOR, read-out: MIC
Experimental: (§2) In vitro MIC testing was performed according to the CLSI M27-A3 standard microbroth dilution methodology for the susceptibility testing of yeasts with minor modifications.

C. albicans ATCC 2310 = experiment: Antifungal MIC, CLSI M27-A3 microbroth dilution; format: cell-based, Candida albicans; conditions: Candida albicans, ATCC2310, C. albicans ATCC 2310, susceptible to FLC, ITC, and VOR, read-out: MIC
Experimental: as §2

C. albicans ATCC 1237 = experiment: Antifungal MIC, CLSI M27-A3 microbroth dilution; format: cell-based, Candida albicans; conditions: Candida albicans, ATCC1237, C. albicans ATCC 1237, resistant to FLC, ITC, and VOR, read-out: MIC
Experimental: as §2

C. albicans ATCC 2876 = experiment: Antifungal MIC, CLSI M27-A3 microbroth dilution; format: cell-based, Candida albicans; conditions: Candida albicans, ATCC2876, C. albicans ATCC 2876, susceptible to FLC, ITC, and VOR, read-out: MIC
Experimental: as §2

C. albicans ATCC 90819 = experiment: Antifungal MIC, CLSI M27-A3 microbroth dilution; format: cell-based, Candida albicans; conditions: Candida albicans, ATCC90819, C. albicans ATCC 90819, resistant to FLC, ITC, and VOR, read-out: MIC
Experimental: as §2

C. albicans ATCC 64124 = experiment: Antifungal MIC, CLSI M27-A3 microbroth dilution; format: cell-based, Candida albicans; conditions: Candida albicans, ATCC64124, C. albicans ATCC 64124, resistant to FLC, ITC, and VOR, read-out: MIC
Experimental: as §2

C. albicans ATCC 1003 = experiment: Antifungal MIC, CLSI M27-A3 microbroth dilution; format: cell-based, Candida albicans; conditions: Candida albicans, ATCC1003, read-out: MIC
Experimental: as §2

[3] = A549 lung carcinoma epithelial cells, A549, 24 h
[4] = BEAS-2B normal bronchial epithelial cells
[5] = C. albicans ATCC 1003, converted from μg/mL

SMILES	IC50 at 24 h [1, 3] [µg/mL]	IC50 at 24 h [1, 4] [µg/mL]	MIC (K. pneumoniae ATCC 27736; converted from μM) [µg/mL]	MIC (K. pneumoniae ATCC 27736; range 0.5 to 500 μM) [µM]	MIC (E. cloacae ATCC 13047; converted from μM) [µg/mL]	MIC (E. cloacae ATCC 13047; range 0.5 to 500 μM) [µM]	MIC (M. smegmatis MC2-155; converted from μM) [µg/mL]	MIC (M. smegmatis MC2-155; range 0.5 to 500 μM) [µM]	MIC (A. baumannii ATCC 19606; converted from μM) [µg/mL]	MIC (A. baumannii ATCC 19606; range 0.5 to 500 μM) [µM]	MIC (MRSA; converted from μM) [µg/mL]	MIC (MRSA; range 0.5 to 500 μM) [µM]	MIC (S. enterica ATCC 14028; converted from μM) [µg/mL]	MIC (S. enterica ATCC 14028; range 0.5 to 500 μM) [µM]	MIC (P. aeruginosa ATCC 27853; converted from μM) [µg/mL]	MIC (P. aeruginosa ATCC 27853; range 0.5 to 500 μM) [µM]	MIC (VRE; converted from μM) [µg/mL]	MIC (VRE; range 0.5 to 500 μM) [µM]	MIC (E. coli MC1061; converted from μM) [µg/mL]	MIC (E. coli MC1061; range 0.5 to 500 μM) [µM]	further results
Cl.Cl.N=C(N)N/N=C/c1ccc(-c2cccc(/C=N/NC(=N)N)c2)cc1 [Compound 3B, (2E,2′E)-2,2′-([1,1′-Biphenyl]-3,4′-diylbis(methanylylidene))bis(hydrazine-1-carboximidamide) dihydrochloride]	7.8 to 15.6	7.8 to 15.6	> 198	> 500	> 198	> 500	0.4	1	> 198	> 500	1.5	3.9	> 198	> 500	> 198	> 500	1.5	3.9	> 198	> 500	MIC ([2]; converted from μM): 0.4 µg/mL; MIC ([2]; range 0.5 to 500 μM): 1 µM; MIC (B. subtilis 168; converted from μM): > 198 µg/mL; MIC (B. subtilis 168; range 0.5 to 500 μM): > 500 µM; MIC (C. albicans ATCC 10231; converted from μg/mL): 9.9 µM; MIC (C. albicans ATCC 10231): 3.9 µg/mL; MIC (C. albicans ATCC 2310; converted from μg/mL): 9.9 µM; MIC (C. albicans ATCC 2310): 3.9 µg/mL; MIC (C. albicans ATCC 1237; converted from μg/mL): 9.9 µM; MIC (C. albicans ATCC 1237): 3.9 µg/mL; MIC (C. albicans ATCC 2876; converted from μg/mL): 9.9 µM; MIC (C. albicans ATCC 2876): 3.9 µg/mL; MIC (C. albicans ATCC 90819; converted from μg/mL): 9.9 µM; MIC (C. albicans ATCC 90819): 3.9 µg/mL; MIC (C. albicans ATCC 64124; converted from μg/mL): 9.9 µM; MIC (C. albicans ATCC 64124): 3.9 µg/mL; MIC (C. albicans ATCC 1003; [5]): 9.9 µM; MIC (C. albicans ATCC 1003): 3.9 µg/mL
Cl.N=C(N)N/N=C/c1ccc(-c2ccc(/C=N/Nc3ccc(Cl)cc3)cc2)cc1 [Compound 7Ad, (E)-2-((4′-((E)-(2-(4-Chlorophenyl)hydrazono)methyl)-[1,1′-biphenyl]-4-yl)methylene)hydrazine-1-carboximidamide monohydrochloride]	7.8 to 15.6	7.8 to 15.6	> 214	> 500	> 214	> 500	1.7	3.9	> 214	> 500	3.3	7.8	> 214	> 500	> 214	> 500	1.7	3.9	> 214	> 500	MIC ([2]; converted from μM): 1.7 µg/mL; MIC ([2]; range 0.5 to 500 μM): 3.9 µM; MIC (B. subtilis 168; converted from μM): > 214 µg/mL; MIC (B. subtilis 168; range 0.5 to 500 μM): > 500 µM; MIC (C. albicans ATCC 10231; converted from μg/mL): 18.3 µM; MIC (C. albicans ATCC 10231): 7.8 µg/mL; MIC (C. albicans ATCC 2310; converted from μg/mL): 9.1 µM; MIC (C. albicans ATCC 2310): 3.9 µg/mL; MIC (C. albicans ATCC 1237; converted from μg/mL): 36.5 µM; MIC (C. albicans ATCC 1237): 15.6 µg/mL; MIC (C. albicans ATCC 2876; converted from μg/mL): 18.3 µM; MIC (C. albicans ATCC 2876): 7.8 µg/mL; MIC (C. albicans ATCC 90819; converted from μg/mL): 18.3 µM; MIC (C. albicans ATCC 90819): 7.8 µg/mL; MIC (C. albicans ATCC 64124; converted from μg/mL): 36.5 µM; MIC (C. albicans ATCC 64124): 15.6 µg/mL; MIC (C. albicans ATCC 1003; [5]): 9.1 µM; MIC (C. albicans ATCC 1003): 3.9 µg/mL
Cl.N=C(N)N/N=C/c1ccc(-c2ccc(/C=N/Nc3ccc(F)cc3F)cc2)cc1 [Compound 7Af, (E)-2-((4′-((E)-(2-(2,4-Difluorophenyl)hydrazono)methyl)-[1,1′-biphenyl]-4-yl)methylene) hydrazine-1-carboximidamide, monohydrochloride]	7.8 to 15.6	7.8 to 15.6	> 214	> 500	> 214	> 500	0.9 to 1.7	2 to 3.9	> 214	> 500	1.7	3.9	> 214	> 500	> 214	> 500	1.7	3.9	> 214	> 500	MIC ([2]; converted from μM): 0.9 to 1.7 µg/mL; MIC ([2]; range 0.5 to 500 μM): 2 to 3.9 µM; MIC (B. subtilis 168; converted from μM): > 214 µg/mL; MIC (B. subtilis 168; range 0.5 to 500 μM): > 500 µM; MIC (C. albicans ATCC 10231; converted from μg/mL): 2.3 µM; MIC (C. albicans ATCC 10231): 1 µg/mL; MIC (C. albicans ATCC 2310; converted from μg/mL): 9.1 µM; MIC (C. albicans ATCC 2310): 3.9 µg/mL; MIC (C. albicans ATCC 1237; converted from μg/mL): 9.1 µM; MIC (C. albicans ATCC 1237): 3.9 µg/mL; MIC (C. albicans ATCC 2876; converted from μg/mL): 9.1 µM; MIC (C. albicans ATCC 2876): 3.9 µg/mL; MIC (C. albicans ATCC 90819; converted from μg/mL): 18.2 µM; MIC (C. albicans ATCC 90819): 7.8 µg/mL; MIC (C. albicans ATCC 64124; converted from μg/mL): 9.1 µM; MIC (C. albicans ATCC 64124): 3.9 µg/mL; MIC (C. albicans ATCC 1003; [5]): 4.5 µM; MIC (C. albicans ATCC 1003): 2 µg/mL
